From patent publication US20250332201A1, “PHARMACEUTICAL COMPOSITION, MEGASPHAERA, AND USE THEREOF” (MOON (GUANGZHOU) BIOTECH CO., LTD., priority 2022, published 2025)

Legend:
strain MNH27256 = assay: Antibiotic sensitivity test, disk diffusion method; type: cell-based, Megasphaera sp.
Experimental: (§1) Antibiotic sensitivity tests of the strains MNH05026, MNH22004, and MNH27256: Antibiotic sensitivity tests were carried out on the strains MNH05026, MNH22004, and MNH27256 by a disk diffusion method.

strain MNH05026 = assay: Antibiotic sensitivity test, disk diffusion method; type: cell-based, Megasphaera sp.
Experimental: as §1

strain MNH22004 = assay: Antibiotic sensitivity test, disk diffusion method; type: cell-based, Megasphaera sp.
Experimental: as §1

[1] = system: mice with NAFLD/NASH induced by a high-fat, high-carbohydrate, and high-cholesterol diet; assay: NAFLD/NASH mouse model (high-fat, high-carbohydrate, high-cholesterol diet), strains combined with Semaglutide (Example 9); type: in vivo, C57BL/6J mice
Experimental: 3) Controls: PBS-Cys containing 25% glycerol PBS-Cys was used as a negative control; and Semaglutide was used as a positive control.
Administration was initiated after the grouping (D1). The negative control group was given the negative control (PBS-Cys) by gavage, 0.2 mL/mouse, twice a day; the positive control group was given Semaglutide by subcutaneous injection, at a dose of 30 nmol/kg, once every 3 days; and the combined treatment group was given Semaglutide (at a dose and frequency of use the same as those in the positive control group) and the corresponding bacterial solution (0.2 mL/mouse, twice a day) by gavage. The experimental period was 60 days. […] During the experiment, one general clinical observation was conducted after the end of each dosing. The animals were weighed twice a week during the dosing, and before dissection at the experimental endpoint. The endpoint of this experiment was the day following the end of dosing (D61). The animals were dissected and sampled according to the protocol at the experimental endpoint, and the data were summarized to analyze the results. […] Statistical analysis was performed using One-Way ANOVA with Dunnett's multiple comparison test.
Relevant experiments were conducted for the strains MNH05026, MNH22004, and MNH27256 using the methods as described in 1) to 4) above.

Compound	Sensitivity or resistance of strain MNH27256 to the antibiotic (strain MNH27256)	Sensitivity or resistance of strain MNH05026 to the antibiotic (strain MNH05026)	Sensitivity or resistance of strain MNH22004 to the antibiotic (strain MNH22004)	other results
CC1(C)S[C@@H]2[C@H](NC(=O)[C@H](N)c3ccccc3)C(=O)N2[C@H]1C(=O)O [Ampicillin]	resistant	sensitive	resistant	
CO/N=C(\C(=O)N[C@@H]1C(=O)N2C(C(=O)O)=C(CSc3nc(=O)c(=O)[nH]n3C)CS[C@H]12)c1csc(N)n1 [Ceftriaxone]	resistant	sensitive	sensitive	
O=C(N[C@H](CO)[C@H](O)c1ccc([N+](=O)[O-])cc1)C(Cl)Cl [Chloramphenicol]	sensitive	sensitive	sensitive	
O=C(O)c1cn(C2CC2)c2cc(N3CCNCC3)c(F)cc2c1=O [Ciprofloxacin]	sensitive	sensitive	sensitive	
CC[C@H]1OC(=O)[C@H](C)[C@@H](O[C@H]2C[C@@](C)(OC)[C@@H](O)[C@H](C)O2)[C@H](C)[C@@H](O[C@@H]2O[C@H](C)C[C@H](N(C)C)[C@H]2O)[C@](C)(O)C[C@@H](C)C(=O)[C@H](C)[C@@H](O)[C@]1(C)O [Erythromycin]	sensitive	sensitive	sensitive	
CCC[C@@H]1C[C@@H](C(=O)N[C@@H]([C@H]2O[C@H](SC)[C@H](O)[C@@H](O)[C@H]2O)[C@@H](C)O)N(C)C1 [Lincomycin]	sensitive	sensitive	sensitive	
Gentamicin	sensitive	sensitive	sensitive	Diameter of inhibition zone by MNH22004 (strain MNH22004): 9.00 mm
Penicillin	resistant	sensitive	resistant	Diameter of inhibition zone by MNH27256 (strain MNH27256): 0 mm; Diameter of inhibition zone by MNH22004 (strain MNH22004): 0 mm
Semaglutide				fasting blood glucose ([1]; Day 30 of oral glucose tolerance test): no significant effect; body weight, 1 d ([1]; day 1, in g (unit assumed)): 45.97; body weight, 33 d ([1]; day 33, in g (unit assumed)): 36.18; weight gain value ([1]; day 33 of intervention): −21.30%; body weight, 36 d ([1]; day 36, in g (unit assumed)): 35.94; body weight, 41 d ([1]; day 41, in g (unit assumed)): 35.98; body weight, 44 d ([1]; day 44, in g (unit assumed)): 36.34; body weight, 48 d ([1]; day 48, in g (unit assumed)): 37.02; body weight, 51 d ([1]; day 51, in g (unit assumed)): 37.26; body weight, 54 d ([1]; day 54, in g (unit assumed)): 36.84; body weight, 58 d ([1]; day 58, in g (unit assumed)): 38.09; body weight, 60 d ([1]; day 60, in g (unit assumed)): 36.67
Trimethoprim-sulfamethoxazole	sensitive	sensitive	sensitive	
